IC50 data for 4 molecules are collected here from ChEMBL document CHEMBL3232715, “Recent progress in the identification of BRAF inhibitors as anti-cancer agents” (Eur J Med Chem, 2014).

The target of test [1] is T1, Serine/threonine-protein kinase B-raf (Homo sapiens, UniProt P15056, V600E). Briefly: Inhibition of BRAF V600E mutant-mediated MEK phosphorylation in human HT-29 cells by Western blotting analysis. The test is classed as cell-based. On the technique in general: In western blotting, separated proteins are transferred to a membrane and probed.
T1 sequence (P15056 2-766 V600E limits assumed): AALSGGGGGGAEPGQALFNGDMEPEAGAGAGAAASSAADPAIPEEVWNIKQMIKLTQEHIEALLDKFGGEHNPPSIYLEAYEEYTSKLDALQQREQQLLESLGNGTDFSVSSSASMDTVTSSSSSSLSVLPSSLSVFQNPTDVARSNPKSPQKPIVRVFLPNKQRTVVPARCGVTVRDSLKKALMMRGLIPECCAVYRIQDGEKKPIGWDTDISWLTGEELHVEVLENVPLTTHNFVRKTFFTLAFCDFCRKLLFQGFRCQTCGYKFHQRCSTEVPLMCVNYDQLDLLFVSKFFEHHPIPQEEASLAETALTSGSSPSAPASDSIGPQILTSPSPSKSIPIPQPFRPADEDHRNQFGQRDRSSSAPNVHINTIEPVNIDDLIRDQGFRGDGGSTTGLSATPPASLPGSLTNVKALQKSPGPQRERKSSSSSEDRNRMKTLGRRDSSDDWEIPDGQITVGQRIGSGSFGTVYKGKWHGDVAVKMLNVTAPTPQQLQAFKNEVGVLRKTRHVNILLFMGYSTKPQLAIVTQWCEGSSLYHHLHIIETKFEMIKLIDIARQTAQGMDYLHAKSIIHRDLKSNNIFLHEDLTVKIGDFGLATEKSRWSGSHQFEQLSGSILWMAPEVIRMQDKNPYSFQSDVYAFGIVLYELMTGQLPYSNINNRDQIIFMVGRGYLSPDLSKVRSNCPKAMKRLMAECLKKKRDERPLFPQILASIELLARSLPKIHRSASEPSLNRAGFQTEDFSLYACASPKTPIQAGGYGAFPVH
Test [2] concerns the target T2, Serine/threonine-protein kinase B-raf (Homo sapiens, UniProt P15056). Briefly: Inhibition of BRAF (unknown origin).
The target of test [3] is T2, Serine/threonine-protein kinase B-raf. The experiment in a line: Inhibition of N-terminal 6X-His tagged human wild-type BRAF by ELISA.
Test [4] has as its target T1, Serine/threonine-protein kinase B-raf. The experiment in a line: Inhibition of N-terminal 6X-His tagged human BRAF V600E mutant (433 to 726) by ELISA.
For a further test, the system named is A-375. Briefly: Antiproliferative activity against human A375 cells. The test is classed as functional, cell-based.
A short description of test [5]: Antiproliferative activity against human WM266.4 cells. The class given is functional, cell-based. The note with it: WM 266-4.
Test [6] addresses T1, Serine/threonine-protein kinase B-raf. Briefly: Inhibition of BRAF V600E mutant (unknown origin).
For test [7], the target named is T2, Serine/threonine-protein kinase B-raf. The experiment in a line: Inhibition of BRAF (unknown origin)-mediated ERK phosphorylation.

T2 sequence (P15056 whole entry): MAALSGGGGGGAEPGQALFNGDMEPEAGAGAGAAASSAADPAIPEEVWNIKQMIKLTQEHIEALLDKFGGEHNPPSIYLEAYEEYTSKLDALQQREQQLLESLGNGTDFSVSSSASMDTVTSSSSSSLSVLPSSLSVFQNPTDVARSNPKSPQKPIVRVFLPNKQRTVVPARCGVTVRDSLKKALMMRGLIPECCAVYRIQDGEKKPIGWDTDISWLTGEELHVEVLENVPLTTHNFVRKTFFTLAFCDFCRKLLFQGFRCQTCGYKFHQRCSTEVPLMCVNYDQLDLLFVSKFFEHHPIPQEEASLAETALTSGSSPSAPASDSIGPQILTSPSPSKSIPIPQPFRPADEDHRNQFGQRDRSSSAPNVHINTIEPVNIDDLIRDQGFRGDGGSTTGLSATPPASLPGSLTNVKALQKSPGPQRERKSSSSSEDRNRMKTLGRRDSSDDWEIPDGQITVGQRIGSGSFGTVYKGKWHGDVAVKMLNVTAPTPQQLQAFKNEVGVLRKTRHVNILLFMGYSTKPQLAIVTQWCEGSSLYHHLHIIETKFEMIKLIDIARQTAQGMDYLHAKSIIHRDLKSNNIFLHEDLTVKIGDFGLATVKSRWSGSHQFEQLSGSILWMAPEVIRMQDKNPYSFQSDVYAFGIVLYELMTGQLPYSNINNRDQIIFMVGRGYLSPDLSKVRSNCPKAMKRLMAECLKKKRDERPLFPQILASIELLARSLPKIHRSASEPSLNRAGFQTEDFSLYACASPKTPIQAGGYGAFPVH

As usually defined, the IC50 is the midpoint of a concentration-inhibition curve. A lower IC50 goes with inhibition by little substance. Turning to `O=C(Nc1cccc(Oc2ccc3nc(NC(=O)C4CCOCC4)cn3n2)c1)c1cccc(C(F)(F)F)c1`, the half-maximal inhibitory concentration (IC50) in test [1] came out at 3.8 µM; in test [2], 43 nM.
As to `O=C1NC(=S)NC(=O)C1=Cc1ccc(-c2ccc3c(c2)OCO3)o1`, the IC50 in test [3] was determined as 1150 nM; in test [4], 300 nM.
On to `O=C(Nc1ccccc1)N(Cc1ccc(Br)cc1O)c1cc(-c2ccccc2)[nH]n1`, for which the IC50 with A-375 came to 1320 nM; in test [5], 1500 nM; in test [6], 190 nM.
In the case of `O/N=C1\CCc2cc(-c3cn(C4CCNCC4)nc3-c3ccncc3)ccc21`, in test [7], the IC50 turned out to be 9 nM.
